# Laboratory results as given in ChEMBL document CHEMBL4229416, “Identification of PKMYT1 inhibitors by screening the GSK published protein kinase inhibitor set I and II” (Bioorg Med Chem, 2018).
# Activity calls are given as the source filed them. No cut-off for these calls is given here.
# What was measured:
# [1] = target: T1, Membrane-associated tyrosine- and threonine-specific cdc2-inhibitory kinase (Homo sapiens, UniProt Q99640); test: Inhibition of human full length PKMYT1 expressed in HEK293 cells using EFS (247 to 259 residues) as substrate after 1 hr by fluorescence polarization immunoasay
# T1 sequence (Q99640 whole entry): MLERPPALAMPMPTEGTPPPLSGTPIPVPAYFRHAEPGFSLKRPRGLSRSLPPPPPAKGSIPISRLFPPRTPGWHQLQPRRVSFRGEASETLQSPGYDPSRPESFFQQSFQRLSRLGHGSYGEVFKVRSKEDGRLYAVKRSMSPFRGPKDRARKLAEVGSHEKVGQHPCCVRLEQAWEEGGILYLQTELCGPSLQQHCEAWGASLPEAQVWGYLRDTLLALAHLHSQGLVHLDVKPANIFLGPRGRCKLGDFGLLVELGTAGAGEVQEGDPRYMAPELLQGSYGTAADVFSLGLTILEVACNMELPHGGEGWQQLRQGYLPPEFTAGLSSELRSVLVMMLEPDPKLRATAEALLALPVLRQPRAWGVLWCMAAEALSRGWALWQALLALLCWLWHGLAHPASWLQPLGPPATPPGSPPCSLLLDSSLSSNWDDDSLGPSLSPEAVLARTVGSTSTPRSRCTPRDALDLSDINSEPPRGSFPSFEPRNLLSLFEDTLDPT
# [2] = target: T2, Membrane-associated tyrosine- and threonine-specific cdc2-inhibitory kinase (Homo sapiens) (UniProt Q99640); test: Inhibition of human full length PKMYT1 expressed in HEK293 cells assessed as decrease in GST-tagged Cdk1 phosphorylation at tyrosine 15 at 5 to 20 uM after 1 hr by Western blot method relative to control; assay type: cell-based
# T2 sequence (whole entry): T1 sequence (Q99640 whole entry)
# [3] = target: T1, Membrane-associated tyrosine- and threonine-specific cdc2-inhibitory kinase; test: Inhibition of N-[3',6'-dihydroxy-3-oxo-3H-spiro(2-benzofuran-1,9'-xanthen)-5-yl]-N'-[2-(4-{4-[N-(2-chloro-6-methylphenyl)-5-carboxamido]-thiazol-2-yl})-amino-2-methyl-pyrimid-6-yl)piperazinyl]-ethyl]thiourea binding to human PKMYT1 kinase doamin expressed in Escherichia coli BL21 after 120 mins by fluorescence polarization asay
# [4] = target: T2, Membrane-associated tyrosine- and threonine-specific cdc2-inhibitory kinase (Homo sapiens); test: Inhibition of PKMYT1 in human HT29 cells assessed as decrease in Cdk1 phosphorylation at tyrosine 15 at 4 uM after 24 hrs by Western blot method; assay type: cell-based
SMILES,IC50 [1],Ki [1],inhibition [2],IC50 [3],Ki [3],inhibition [4]
Oc1cccc(Nc2ccnc3cc(-c4ccncc4)ccc23)c1,706 nM,67.2 nM,Active,332 nM,201 nM,–
COc1cc(Nc2ncc(C#N)c(Nc3ccccc3C(N)=O)n2)ccc1N1CCN(C)CC1,–,–,Active,–,–,Active
COc1cc2ncnc(Nc3cccc(Cl)c3)c2cc1OC [TYRPHOSTIN AG-1478],19600 nM,1870 nM,–,55000 nM,26200 nM,–
NC(=O)c1cc(-c2ccncc2)cc(-c2ccccc2)c1N [GSK-625137A],58000 nM,5520 nM,Active,11400 nM,5810 nM,–
CNC(=O)c1ccccc1Nc1nc(Nc2cccc(CS(C)(=O)=O)c2)ncc1C,115 nM,10.9 nM,Active,151 nM,104 nM,Active
Cc1cc(O)cc(Nc2ccnc3cc(-c4ccccn4)ccc23)c1,543 nM,51.7 nM,Active,9430 nM,6150 nM,Active
Cn1c(=O)c(-c2c(Cl)cccc2Cl)cc2cnc(Nc3ccc(N4CCOCC4)cc3)nc21,24 nM,2.3 nM,–,55 nM,8.1 nM,–
Cc1cc(O)cc(C)c1/C=C/c1cncc(C(N)=O)c1 [GW435821X],14500 nM,1380 nM,Active,876 nM,522 nM,–

# Next, values leading:
IC50 [1],Ki [1],inhibition [2],IC50 [3],Ki [3],inhibition [4],SMILES
7560 nM,720 nM,Active,18900 nM,14700 nM,–,O=C(Nc1cccc(-c2nn3ncccc3c2-c2ccnc(Nc3cccnc3)n2)c1)c1c(F)cccc1F
270 nM,25.7 nM,Active,352 nM,180 nM,Active,CNC(=O)c1ccccc1Nc1nc(Nc2ccc(N3CCOCC3)cc2)ncc1Cl
109 nM,10.4 nM,–,2700 nM,13500 nM,–,Cc1cc(Nc2ncc3cc(-c4c(Cl)cccc4Cl)c(=O)n(C)c3n2)ccc1F
8 nM,0.8 nM,–,31.1 nM,2 nM,–,CCN(CC)CCOc1ccc(Nc2ncc3cc(-c4c(Cl)cccc4Cl)c(=O)n(C)c3n2)cc1 [PD-0166285]
–,–,Active,–,–,–,NC(=O)c1cccc(Nc2nccc(Nc3cccc4[nH]ncc34)n2)c1 [GW782612X]
